Laboratory results taken from PMC6522524 (Nature Communications, 2019).
“And” between values parts separate entries of the source, which are not always exact repeats. Identical values can stand only once. Counter-ions that a name gives are not always drawn. Like-named read-outs stand apart in the source and are kept apart here.

Experiments:
[1] = tested on: HBV (ayw subtype, genotype D) replicon in HepG2.2.15 cells; test: microbe, parasite or virus in culture; format: cell-based, Hepatitis B virus; settings: for inhibition at 1 µM: Hepatitis B virus
[2] = tested on: HBV pgRNA/precore RNA in HepG2.2.15 cells; format: cell-based, Hepatitis B virus
Experimental: Fig. 1 Effect of FDA-approved compounds on HBV replication. a Schematic depiction of the primary screening analysis. HepG2.2.15 cells, which were stably transfected with HBV replicons, were treated with 978 FDA-approved drugs (1 μM) for 3 days. Entecavir (ETV) (1 μM) served as positive control. […] Quantitative RT-PCR was performed after 6 days of incubation. d Effect of the 19 candidates on intracellular HBV capsid assembly. Huh-7 cells were transfected with pCDNA3-Core and exposed after 12 h to the 19 candidates (1 μM) for 36 h. The cells were lysed and assembled HBV core particles were isolated by sucrose step gradient ultracentrifugation, resolved on 1% agarose gels, and subjected to immunoblot analysis with anti-HBV core antibody.
Quantitative RT-PCR with primers that detect three HBV regions (R1, R2, and R3, Supplementary Table 1) was used to measure HBV transcription. This RT-PCR detects pgRNA and precore RNA (3.5 kB), two HBV surface-encoding RNAs (2.5 kB and 2.1 kB), and HBx-encoding RNA (0.7 kB)[55]. PCR conditions were 95 °C for 10 min initially, then 50 cycles of 95 °C for 30 s, 60 °C for 60 s and 72 °C for 30 s, and finally 1 cycle of 95 °C for 60 s, 55 °C for 30 s and 95 °C for 30 s.
a Schematic depiction of the R1, R2, and R3 regions of the HBV genome that were targeted by
quantitative RT-PCR to quantitate the transcription of pgRNA, two HBV surface RNAs, and HBx RNA.
pGL3/HBV pgRNA promoter or pGL3/HBV sRNA promoter. The data shown in (b – d) represent two

[3] = ref https://www.drugbank.ca/; cited from earlier work
[4] = HepG2.2.15, 72 h, 1 μM, 3 days, ETV =100%, read-out: % of inhibition (ETV =100%), initial screening (3days)
[5] = HepG2.2.15, 144 h, 6 days, ETV =100%, read-out: % of inhibition (ETV =100%), confirmation (6days)
[6] = HepG2.2.15, 72 h, read-out: % of inhibition (ETV =100%), initial screening (3days)
[7] = HepG2.2.15, 144 h, read-out: % of inhibition (ETV =100%), confirmation (6days)

Compound	inhibition at 1 µM [1, 4]	inhibition at 1 µM [1, 5]	Relative HBV pgRNA/precore RNA level (Folds), AVERAGE ([2]; Fig. 1c, 6 days)	pKa value (acidic) [3]	pKa value (basic) [3]	Relative HBV pgRNA/precore RNA level (Folds), AVERAGE [2]	also measured
C[N+]1(C)[C@@H]2C[C@@H](OC(=O)C(O)(c3cccs3)c3cccs3)C[C@H]1[C@@H]1O[C@@H]12 [Tiotropium Bromide hydrate]	117%	4.9%	1.071 Folds	10.35	-4.3		
COc1cc(C)c(/C=C/C(C)=C/C=C/C(C)=C/C(=O)O)c(C)c1C [Acitretin]	110%	1.8%	0.9923 Folds	5.01	-4.8		
NCCc1ccc(O)c(O)c1 [Dopamine hydrochloride]				10.01	9.27	1.103 Folds	inhibition at 1 µM [1, 6]: 162%; inhibition at 1 µM [1, 7]: 67.9%
CN1C(C(=O)Nc2ccccn2)=C(O)c2sccc2S1(=O)=O [Tenoxicam]				2.21	4.26	0.04619 Folds	inhibition at 1 µM [1, 6]: 110%; inhibition at 1 µM [1, 7]: 79.4%
Clc1ccc(COC(Cn2ccnc2)c2ccc(Cl)cc2Cl)cc1 (stereo not shown) [Econazole nitrate]					6.77	0.0453 Folds	inhibition at 1 µM [1, 6]: 147%; inhibition at 1 µM [1, 7]: 27.5%
L-Adrenaline			0.9192 Folds				% of inhibition (ETV =100%), initial screening (3days) ([1]; 1 μM, 3 days, ETV =100%): 152.6%; % of inhibition (ETV =100%), confirmation (6days) ([1]; 6 days, ETV =100%): 1.5%; Relative secreted HBV DNA level (Folds), AVERAGE ([1]; Fig. 1b, 6 days): 0.9865 Folds; Relative secreted HBV DNA level (Folds), individual samples ([1]; Fig. 1b, 6 days, Sample1-3): 0.9865 Folds and 0.985 Folds and 0.9881 Folds; Relative HBV pgRNA/precore RNA level (Folds), individual samples ([2]; Fig. 1c, 6 days, Sample1-3): 1.032 Folds and 0.7969 Folds and 0.9286 Folds
CCCN(CCc1cccs1)[C@H]1CCc2c(O)cccc2C1 [Rotigotine]	104%	65.9%	1.049 Folds	10.03	10.97		
O=N[O-].[Na+] [Sodium nitrite]						0.04652 Folds	% of inhibition (ETV =100%), confirmation (6days) [1]: 83.1%; Relative secreted HBV DNA level (Folds), AVERAGE [1]: 0.2643 Folds; Relative secreted HBV DNA level (Folds), individual samples [1]: 0.2643 Folds and 0.2628 Folds and 0.2659 Folds; % of inhibition (ETV =100%), initial screening (3days) ([1]; 1 µM): 152.7%; Relative HBV pgRNA/precore RNA level (Folds), individual samples [2]: 0.04803 Folds and 0.041 Folds and 0.05054 Folds
CC(C)(C)c1ccc(C(O)CCCN2CCC(C(O)(c3ccccc3)c3ccccc3)CC2)cc1 (stereo not shown) [Terfenadine]				13.2	9.02	0.05435 Folds	inhibition at 1 µM [1, 6]: 101%; inhibition at 1 µM [1, 7]: 83.6%
OC(CCN1CCCC1)(c1ccccc1)C1CCCCC1 (stereo not shown) [Procyclidine HCl]	112%	70.4%	1.056 Folds		9.45		
CCOCC(O)COc1ccc(NC(=O)CC[S+](C)C)cc1 (stereo not shown) [Suplatast tosylate]	125%	76.2%	1.034 Folds	12.7			
Clc1ccc(COC(Cn2ccnc2)c2ccc(Cl)cc2Cl)c(Cl)c1 (stereo not shown) [Miconazole]					6.77	0.964 Folds	inhibition at 1 µM [1, 6]: 132%; inhibition at 1 µM [1, 7]: -2.8%
O=c1[nH]c(=O)n(C2CCCO2)cc1F (stereo not shown) [Ftorafur]	131%	64.7%	0.977 Folds	8.08	-4.3		
CC(C)NCC(O)c1ccc(NS(C)(=O)=O)cc1 (stereo not shown) [Sotalol]	128%	69.7%	1.022 Folds	10.07	9.43		
Clc1ccc(C(Cn2ccnc2)OCc2c(Cl)cccc2Cl)c(Cl)c1 (stereo not shown) [Isoconazole nitrate]	148%	41.4%	1.034 Folds		6.77		
Cc1c(N(C)C)c(=O)n(-c2ccccc2)n1C [Amidopyrine]			1.046 Folds		3.47		% of inhibition (ETV =100%), initial screening (3days) ([1]; 1 μM, 3 days, ETV =100%): 111.6%; % of inhibition (ETV =100%), confirmation (6days) ([1]; 6 days, ETV =100%): 7.1%; Relative secreted HBV DNA level (Folds), AVERAGE ([1]; Fig. 1b, 6 days): 0.9368 Folds; Relative secreted HBV DNA level (Folds), individual samples ([1]; Fig. 1b, 6 days, Sample1-3): 0.9368 Folds and 0.9352 Folds and 0.9383 Folds; Relative HBV pgRNA/precore RNA level (Folds), individual samples ([2]; Fig. 1c, 6 days, Sample1-3): 1.129 Folds and 0.9386 Folds and 1.071 Folds
O=C1NC(=O)C(c2ccccc2)(c2ccccc2)N1 [Phenytoin sodium]	124%	-2.4%	0.7935 Folds	9.47			
OC(CNCC(O)C1CCc2cc(F)ccc2O1)C1CCc2cc(F)ccc2O1 (stereo not shown) [Nebivolol]	103%	78.4%	0.9531 Folds	13.52	8.9		
